Data published in article PMC8416020 (eLife, 2021).
“Also recorded” adds a separate entry of the source. Where no end group is shown, it is not given here.

Columns and labels:
GHSR F272^6.44 mutants = conditions: ref Valentin-Hansen et al., 2012, cited from earlier work
Text: (§1) The fluorescent probe was introduced at different positions along GHSR sequence. […] The absence of major effect on substituting F272^6.44 with 7H4MC-ethylglycine on GHSR functioning was puzzling, as mutating this residue to an ala ...

[1] = tested on: GHSR F272^6.44 to alanine mutant; conditions: mutating F272^6.44 to alanine; ref Valentin-Hansen et al., 2012; cited from earlier work
Text: as §1

[2] = tested on: GHSR labeled at I134^3.43, Y232^5.58, V268^6.40, F272^6.44, and S315^7.45; test: Effect of 7H4MC-ethylglycine labeling on ghrelin binding and Gq activation; format: biochemical, human; conditions: positions I134^3.43, Y232^5.58, V268^6.40, F272^6.44, S315^7.45
[3] = tested on: GHSR labeled with 7H4MC-ethylglycine at F272^6.44; test: Hydration parameter H from 7H4MC fluorescence emission; format: biochemical, human; conditions: for H parameter: 6.44
Text: (§2) We then investigated whether the fluorescence properties of 7H4MC-ethylglycine could report on the local hydration features of GHSR. To this end, we analyzed the 7H4MC emission profile for each of the positions considered. An excitation wavelength of 320 nm was systematically used to excite the neutral form of the fluorophore ([Amaro et al., 2015]). The emission spectra were deconvoluted into their separate components using the procedure initially described ([Amaro et al., 2015]). A hydration parameter H was then determined that corresponded to the sum of the contributions of the anionic and tautomer forms. This parameter is an indicator of the extent of hydration at the position considered, as the higher the H parameter the higher local hydration ([Amaro et al., 2015]). A difference in the H parameter inferred for the 7H4MC probe at the different positions of the apo GHSR was observed depending on the position considered (Figure 2—figure supplement 1, 2).
(§3) Figure 2. Local hydration of growth hormone secretagogue receptor (GHSR) as a function of ligands. […] All ligands were used at a 10 µM concentration. In all cases, the data represents the mean value ± SD of three experiments. Statistical analyses are provided in […]—figure supplement 2 and 4. Figure 2—source data 1. H parameter for GHSR and its mutants. Figure 2—figure supplement 1. Emission spectra of L-(7-hydroxycoumarin-4-yl) (7H4MC)-ethylglycine incorporated into isolated growth hormone secretagogue receptor (GHSR). The spectra were recorded in the absence of ligand. The labeling positions are given in a snake-like plot of GHSR ([Shiimura et al., 2020]) (A) (red: positions deleterious to GHSR function; green: positions considered in this work), and then indicated in each panel (B–F). The excitation wavelength was set to 320 nm with an emission intensity recorded between 340 and 600 nm. The gray curve represents the experimental emission spectrum (exp). The red, blue, green, and magenta spectra represent the decomposition of the experimental spectrum into its neutral (N), complexed (C), anionic (A), and tautomeric (T) components, respectively. The orange curve (fit) corresponds to sum of the individual N, C, A, and T curves. Figure 2—figure supplement 1—source data 1. 7-H4MC emission intensity of the apo GHSR mutants. [drawing 7] Figure 2—figure supplement 2. Statistical analysis of the data in Figure 2. […] Data is from Figure 2. […] Structure of the ligands used throughout this work. [drawing 9] Figure 2—figure supplement 4. Statistical analysis of the data in Figure 2. The left panels show the hydration parameter for each of the mutants in the absence or in the presence of ligands. Data are from Figure 2. The right panels show the mean difference between the apo and the ligand-loaded states for each of the mutants with multiplicity-adjusted 95% confidence intervals. [drawing 10] Figure 2—figure supplement 5. Emission spectra of L-(7-hydroxycoumarin-4-yl) (7H4MC)-ethylglycine incorporated at position 5.58 of growth hormone secretagogue receptor (GHSR) in the presence of pharmacologically distinct ligands or phosphatidylinositol-4,5-bisphosphate (PIP2). […] The excitation wavelength was set to 320 nm with an emission intensity recorded between 340 and 600 nm. The black curve represents the experimental emission spectrum (exp). The red one (fit) corresponds to sum of the individual curves after decomposition of the experimental spectrum into its neutral, complexed, anionic, and tautomeric components. Figure 2—figure supplement 5—source data 1. 7-H4MC emission intensity of the GHSR 5.58 mutant in the presence of ligands. [drawing 11] Figure 2—figure supplement 6. […]

[4] = tested on: GHSR labeled with 7H4MC-ethylglycine at I134^3.43; test: as above; format: biochemical, human; conditions: ligand 10 µM, POPC:POPG nanodiscs, 15°C, ex 320 nm
Text: as §2, §3

[5] = tested on: GHSR labeled with 7H4MC-ethylglycine at S315^7.45; test: as above; format: biochemical, human; conditions: ligand 10 µM, POPC:POPG nanodiscs, 15°C, ex 320 nm
Text: as §2, §3

[6] = tested on: GHSR labeled with 7H4MC-ethylglycine at V268^6.40; test: as above; format: biochemical, human; conditions: for H parameter: 6.4, ligand 10 µM, POPC:POPG nanodiscs, 15°C, ex 320 nm
Text: as §2, §3

[7] = tested on: GHSR labeled with 7H4MC-ethylglycine at Y232^5.58; test: as above; format: biochemical, human; conditions: for H parameter: 5.58
Text: as §2, §3

GHSR = conditions: ref M'Kadmi et al., 2015; cited from earlier work
isolated GHSR = conditions: ghrelin versus SPA; ref Mary et al., 2012; cited from earlier work
Text: We then used 7H4MC fluorescence to monitor the impact of ligand binding on the hydration pattern of GHSR.

7H4MC-labeled GHSR = test: Hydration parameter H from 7H4MC fluorescence emission, several positions together; format: biochemical, human; conditions: positions besides 5.58 and 6.44; saturating ligand (10 µM); vs apo
Text: as §2
Figure 2. Local hydration of growth hormone secretagogue receptor (GHSR) as a function of ligands. […] All ligands were used at a 10 µM concentration. […] The spectra were recorded in the absence of ligand. […] The excitation wavelength was set to 320 nm with an emission intensity recorded between 340 and 600 nm. […] The excitation wavelength was set to 320 nm with an emission intensity recorded between 340 and 600 nm. […]

[8] = ligand 10 µM, POPC:POPG nanodiscs, 15°C, ex 320 nm, replicate 1
[9] = ligand 10 µM, POPC:POPG nanodiscs, 15°C, ex 320 nm, replicate 2
[10] = ligand 10 µM, POPC:POPG nanodiscs, 15°C, ex 320 nm, replicate 3
[11] = Figure 5, 10 µM ghrelin, 2.5% PIP2-to-total lipids molar ratio, replicate 1
[12] = Figure 5, 10 µM ghrelin, 2.5% PIP2-to-total lipids molar ratio, replicate 2
[13] = Figure 5, 10 µM ghrelin, 2.5% PIP2-to-total lipids molar ratio, replicate 3
[14] = Figure 5, 10 µM ghrelin, no PIP2, replicate 1
[15] = Figure 5, 10 µM ghrelin, no PIP2, replicate 2
[16] = Figure 5, 10 µM ghrelin, no PIP2, replicate 3
[17] = saturating ligand (10 µM), vs apo

In the case of “ghrelin: natural full agonist of GHSR, natural peptide agonist (GSSFLSPEHQRVQQRKESKKPPAKLQPR; not fully specified; ends and bridges not checked; UniProt Q9UBU3 24-51, looked up)”, the “ghrelin-induced signaling, F272^6.44 to alanine” value (GHSR F272^6.44 mutants; mutating F272^6.44 to alanine) is listed as “reduce ghrelin-induced signaling”, the “basal- and ghrelin-induced GHSR activity, F272^6.44 to tyrosine” value (GHSR F272^6.44 mutants; replacing phenylalanine with tyrosine, compared with alanine) is listed as “far lower impact on both basal- and ghrelin-induced GHSR activity” and the “ghrelin binding affinity, F272^6.44 to alanine” value [1] is listed as “without affecting ghrelin binding affinity”. The “effect of labeling on ghrelin binding and receptor-catalyzed Gq activation” value [2] was “essentially neutral with regard to the ability of the receptor to bind ghrelin and activate Gq; also recorded: affected neither ghrelin binding nor the receptor-catalyzed Gq activation in a relevant manner”, the H parameter [3, 8] was 21.07 and the H parameter [3, 9] was 20.32. For the same substance, the H parameter [3, 10] was 19.11, the H parameter [3, 11] was 15.658 and the H parameter [3, 12] was 15.178. For the same substance, the H parameter [3, 13] was 13.342, the H parameter [3, 14] was 18.095 and the H parameter [3, 15] was 20.174. The H parameter [3, 16] was 21.958, the “change in the hydration parameter at position 6.44 upon binding” value [3, 17] was “local hydration at position 6.44 decreased” and the H parameter ([4]; replicate 1) was 68.24. For the same substance, the H parameter ([4]; replicate 2) was 63.92, the H parameter ([4]; replicate 3) was 67.2 and the H parameter ([5]; replicate 1) was 24.96. It also gave a H parameter ([5]; replicate 2) of 23.88, a H parameter ([5]; replicate 3) of 21.19 and a H parameter ([6]; replicate 1) of 61.86. The H parameter ([6]; replicate 2) was 65.16, the H parameter ([6]; replicate 3) was 62.17 and the “change in the hydration parameter at V268^6.40” value [6, 17] was “no change was observed for V268^6.40”. It also gave a H parameter [7, 8] of 48.83, a H parameter [7, 9] of 49.38 and a H parameter [7, 10] of 47.22. The H parameter [7, 11] was 60.136, the H parameter [7, 12] was 58.145 and the H parameter [7, 13] was 61.325. It also gave a H parameter [7, 14] of 49.568, a H parameter [7, 15] of 47.078 and a H parameter [7, 16] of 48.124. The “change in the hydration parameter at position 5.58 upon binding” value [7, 17] was “increase in the hydration parameter at position 5.58”, the pharmacological class (GHSR) was “natural full agonist” and the “effect of ghrelin and SPA on GHSR activation and conformational landscape” value (isolated GHSR) was “opposite effect of ghrelin and SPA on GHSR activation and conformational landscape”. For the same substance, the “change in the hydration parameter at other positions” value (7H4MC-labeled GHSR) was “no relevant change in the hydration parameter”.
